Assay results: BindingDB's records for doi:10.1016/j.bmcl.2016.04.028 (Chinese Academy of Sciences (Cas), 2016)

Experiments:
[1] = Inhibition of FGFR3 in human RT112 cells assessed as suppression of cell proliferation after 72 hrs by SRB/CCK-8 assay
[2] = Inhibition of FGFR1 in human H1581 cells assessed as suppression of cell proliferation after 72 hrs by SRB/CCK-8 assay
[3] = Inhibition of FGFR1 in human KG1 cells assessed as suppression of cell proliferation after 72 hrs by SRB/CCK-8 assay

IC50 [1]: < 0.2 nM | IC50 [2]: < 0.5 nM | IC50 [3]: < 0.2 nM
SMILES: COc1cc(CCc2cc(Nc3ncnc4cc(N5CCN6CCCCC6C5)ccc34)n[nH]2)cc(OC)c1 (stereo not drawn)
